Data: patent US11891667B2, “IGF2BP3 functional alterations and overexpression as a marker for cancer diagnosis and therapeutic response to IGF1R inhibitors” (UNIVERSITY OF PITTSBURGH-OF THE COMMONWEALTH SYSTEM OF …, priority 2016, dated 2024)

Legend:
[1] = system: U2OS cells with induced IGF2BP3 expression; test: Cell growth of U2OS cells transiently transfected with IGF2BP3; assay type: cell-based; details: IGF2BP3 induced by transient transfection, FIG. 5C
Protocol: (§1) The effects of IGF1R inhibition on the growth of cancer cells driven by IGF2PB3 overexpression were then tested. First, studies were conducted to determine if activation of the AKT and MAPK pathways and cell growth induced by IGF2BP3 overexpression is affected by inhibiting IGF1R by OSI-906 in vitro. […] The experiments were repeated in quadruplicate and were calculated as percentage of viable cells after treatment with OSI-906 (mean±SD). […] Again, the assay was performed in quadruplicate and shown as mean±SD.

[2] = system: PaCa-2 cells; test: Soft agar colony formation of PaCa-2 cells; assay type: cell-based, human
Protocol: Finally, the impact of IGF2BP3 overexpression on cell transformation was investigated.
as §1

[3] = system: FTC133 thyroid cancer cell tumors; test: FTC133 xenograft in nude mice; assay type: in vivo; details: FIG. 5G; for tumor growth: FTC133 subcutaneous xenograft, nude mice, therapeutic doses
Protocol: (§2) Next, tumor cells overexpressing IGF2BP3 were tested to see if their growth can be blocked via IGF1R inhibition in vivo using a xenograft experimental model. Pancreatic cancer cells PaCa-2 and colon cancer cells Caco-2, both expressing IGF2PB3 at high level (FIG. 5B), and thyroid cancer cells FTC133 with low levels of IGF2BP3 expression were employed to establish tumors growing in nude mice at sites of subcutaneous cell injection.

[4] = system: FTC133 cells with induced IGF2BP3 expression; test: Cell growth of FTC133 cells transiently transfected with IGF2BP3; assay type: cell-based, human; details: FTC133, IGF2BP3 induced by transient transfection, FIG. 5C
Protocol: as §1

[5] = system: IGF1R; test: Western blotting of IGF1R phosphorylation and downstream signaling in HEK293 cells overexpressing IGF2BP3; assay type: cell-based; details: FIG. 5A
Protocol: as §1

[6] = system: PaCa-2 pancreatic cancer cell tumors; test: PaCa-2 xenograft in nude mice; assay type: in vivo; details: FIG. 5F; for tumor growth: PaCa-2 subcutaneous xenograft, nude mice, therapeutic doses
Protocol: as §2

[7] = system: FTC133 cells; test: Cell growth/proliferation of FTC133 cells (low IGF2BP3); assay type: cell-based, human
Protocol: as §1

[8] = system: Caco-2 colon cancer cell tumors; test: Caco-2 xenograft in nude mice; assay type: in vivo; details: FIG. 5F; for tumor growth: Caco-2 subcutaneous xenograft, nude mice, therapeutic doses
Protocol: as §2

[9] = system: solid tumors; details: cited from earlier work
[10] = system: U2OS cells; test: Cell growth/proliferation of U2OS cells (low IGF2BP3); assay type: cell-based
Protocol: as §1

[11] = system: PaCa-2 cancer cells; test: Cell growth/proliferation of PaCa-2 cancer cells (high IGF2BP3); assay type: cell-based, human
Protocol: as §1

C[C@]1(O)C[C@@H](c2nc(-c3ccc4ccc(-c5ccccc5)nc4c3)c3c(N)nccn32)C1 [OSI-906, linsitinib]
cell growth [1]: acquired sensitivity to growth inhibition
colony formation in soft agar [2]: significant reduction of colony formation
tumor growth [3]: had no effect on the growth
tumor growth ([3]; listed as linsitinib): not impacted
phosphorylated IGF1R, AKT, S6, and ERK in the tumor tissue ([3]; FTC133 xenograft tumor tissue): did not show reduction in the phosphorylation
cell growth [4]: acquired sensitivity to growth inhibition
IGF1R phosphorylation and downstream signaling induced by IGF2BP3 ([5]; 5 μM, 30 minutes): inhibition of IGF1R phosphorylation and downstream signaling
phosphorylation of AKT, S6, and ERK induced by IGF2BP3 overexpression ([5]; Western blotting): blocked phosphorylation of AKT, S6, and ERK
tumor growth [6]: arrested growth of tumors
tumor growth ([6]; listed as linsitinib): particularly inhibited
phosphorylated IGF1R, AKT, S6, and ERK in the tumor tissue ([6]; PaCa-2 xenograft tumor tissue): reduction of phosphorylated IGF1R, AKT, S6, and ERK
cell growth ([7]; FTC133, low IGF2BP3 expression, FIG. 5B): did not have any effects
proliferation (percentage of viable cells) ([7]; FTC133, treatment for 72 hours, FIG. 5B bottom panel): no effect on proliferation
tumor growth [8]: arrested growth of tumors
tumor growth ([8]; listed as linsitinib): particularly inhibited
phosphorylated IGF1R, AKT, S6, and ERK in the tumor tissue ([8]; Caco-2 xenograft tumor tissue): reduction of phosphorylated IGF1R, AKT, S6, and ERK
proportion of patients with clinical response ([9]; clinical trials, patients with solid tumors): 1-5%
efficacy in patients in clinical trials ([9]; clinical trials): ineffective in the vast majority of patients
tumor responsiveness in clinical trials ([9]; colorectal cancer, non-small cell lung cancer, sarcoma, and other cancer types): only low levels of tumor responsiveness were observed
cell growth ([10]; low IGF2BP3 expression, FIG. 5B): did not have any effects
proliferation (percentage of viable cells) ([10]; treatment for 72 hours, FIG. 5B bottom panel): no effect on proliferation
cell growth ([11]; PaCa-2, strongly overexpress IGF2BP3, FIG. 5B): dose-dependent growth inhibition
proliferation (percentage of viable cells) ([11]; PaCa-2, treatment for 72 hours, FIG. 5B bottom panel): inhibition of proliferation
